Results reported in US10899723B2, “Heterocyclic containing cyclopropyl FXR modulators” (Hepagene Therapeutics (HK) Limited, priority 2016, dated 2021).
Where a name gives a salt, the structure may show the parent alone.

Tests used:
FXR = target: T1, FXR (Homo sapiens, UniProt Q96RI1); experiment: FXR Transactivation Assay (pBIND-FXR / pGL4.35 luciferase reporter in HEK293T); type: cell-based; details: HEK293T cells
T1 construct: expressed in transfected cells; host or cells: HEK293T
T1 sequence (Q96RI1 1-486): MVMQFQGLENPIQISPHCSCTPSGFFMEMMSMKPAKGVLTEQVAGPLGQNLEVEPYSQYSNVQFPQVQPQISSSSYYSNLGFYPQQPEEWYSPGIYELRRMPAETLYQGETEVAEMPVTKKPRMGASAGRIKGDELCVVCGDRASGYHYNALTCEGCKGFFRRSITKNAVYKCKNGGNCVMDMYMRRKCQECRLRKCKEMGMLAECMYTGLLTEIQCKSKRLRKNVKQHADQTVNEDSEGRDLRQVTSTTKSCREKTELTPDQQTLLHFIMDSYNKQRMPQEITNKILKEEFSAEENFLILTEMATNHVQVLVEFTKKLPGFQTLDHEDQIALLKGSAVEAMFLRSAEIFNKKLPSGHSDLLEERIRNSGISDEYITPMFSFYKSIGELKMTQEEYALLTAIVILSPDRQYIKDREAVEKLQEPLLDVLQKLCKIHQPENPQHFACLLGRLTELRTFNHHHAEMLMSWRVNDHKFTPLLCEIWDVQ
Experimental: FXR Transactivation Assay
pGL4.35 [luc2P/9XGAL4 UAS/Hygro]
DMEM medium, high glucose
Fetal Bovine Serum (FBS, heat-inactivated)
Penicillin-Streptomycin (10000 U/ml, 100 ml)
DMEM, High Glucose, HEPES, no Phenol Red
Opti-MEM® I Reduced Serum Medium
Steady-Glo™ Luciferase Assay System
TransIT-293 Transfection Reagent
GW4064 as a positive control
(§1) • 1. Hek293T cells were plated at 1.1*10^6/ml into a 100 mm dish. • 2. Cells were transfected with 8.4 μg of pBind-FXR, 1.26 μg of the reporter vector pGL4.35 (Promega). Cells were incubated at 37° C. under 5% CO2 atmosphere. • 3. All of compounds were 3-fold serial diluted from 10 mM stock for 10 doses in DMSO. • 4. Transfer compound dilutions into 384 well assay plates using liquid workstation. • 5. Seed 25 ul HEK293T cells into 384 well assay plate (prepared step 4) at 0.6*10^5/ml. Cells were incubated at 37° C. under 5% CO2 atmosphere overnight. • 6. Add 25 ul steady-Glo™ Luciferase Assay Reagent into each well of 384-well assay plate. • 7. Record the luminescence value on Envision 2104 plate reader. • 8. Calculate EC50 by fitting % Activity values and log of compound concentrations to nonlinear regression (dose response−variable slope) with Graphpad 5.0. FXR Coactivator Assay Reagents: LanthaScreen™ TR-FRET Farnesoid X Receptor Coactivator Assay GW4064 as a positive control Process: • 1. All of compounds were 3-fold serial diluted from 10 mM stock for 10 doses in DMSO. • 2. Dilute each 100× agonist serial dilution to 2× using Complete Coregulator buffer G. • 3. Transfer 10 μl of each of the 2× agonist serial dilutions to 384 well assay plates. • 4. […] Incubate at room temperature protected from light. • 7. Read the plate at wavelengths of 520 nm and 495 nm on Envision 2104 plate reader. • 8. Calculate the TR-FRET ratio by dividing the emission signal at 520 nm by the emission signal at 495 nm. • 9. Calculate EC50 by fitting % Activity values and log of compound concentrations to nonlinear regression (dose response−variable slope) with Graphpad 5.0.

FXR-LBD = target: T2, FXR-LBD (Homo sapiens, UniProt Q96RI1); experiment: FXR Coactivator Assay (LanthaScreen TR-FRET); type: biochemical
T2 construct: Add 5 μl of 4×FXR-LBD to 384 well assay plates; purchased
T2 sequence (Q96RI1 262-486 limits assumed): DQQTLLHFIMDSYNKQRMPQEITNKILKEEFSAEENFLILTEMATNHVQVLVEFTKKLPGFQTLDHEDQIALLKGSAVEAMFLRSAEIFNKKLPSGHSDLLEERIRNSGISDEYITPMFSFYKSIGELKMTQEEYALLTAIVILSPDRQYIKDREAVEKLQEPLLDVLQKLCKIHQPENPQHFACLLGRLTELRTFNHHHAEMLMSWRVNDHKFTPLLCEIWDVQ
Experimental: as §1

| EC50 (FXR) [nM] | EC50 (FXR-LBD) [nM] | Structure (SMILES) |
| --- | --- | --- |
| 10 to 100 | – | CC1(c2ccc(OCc3c(-c4c(Cl)cccc4Cl)noc3C3CC3)cc2Cl)CC1c1cccc(C(=O)O)c1 (stereo not shown) [VI-03] |
| 10 to 100 | – | CC1(c2ccc(OCc3c(-c4c(Cl)cccc4Cl)noc3C3CC3)cc2Cl)CC1c1ccnc(C(=O)O)c1 (stereo not shown) [VI-06] |
| 101 to 400 | – | CC1(c2ccc(OCc3c(-c4c(Cl)cccc4Cl)noc3C3CC3)cc2Cl)CC1c1cc(C(=O)O)ccn1 (stereo not shown) [VI-07] |
| 10 to 100 | – | CC(C)c1onc(-c2c(Cl)cccc2Cl)c1COc1ccc(C2(C)CC2c2nc3c(F)cc(C(=O)O)cc3s2)c(Cl)c1 (stereo not shown) [VI-08] |
| 10 to 100 | – | CC1(c2ccc(OCc3c(-c4c(Cl)cccc4Cl)noc3C3CC3)cc2Cl)CC1c1nc2c(F)cc(C(=O)O)cc2s1 (stereo not shown) [VI-09] |
| – | 101 to 400 | COc1cc(C(=O)O)cc2sc(C3CC3(C)c3ccc(OCc4c(-c5c(Cl)cccc5Cl)noc4C(C)C)cc3Cl)nc12 (stereo not shown) [VI-10] |
| 10 to 100 | – | CC(C)c1onc(-c2c(Cl)cccc2Cl)c1COc1ccc(C2(C)CC2c2nc3ccc(C(=O)O)cc3s2)c(Cl)c1 (stereo not shown) [VI-11] |
| 10 to 100 | – | CC(C)c1onc(-c2c(Cl)cccc2Cl)c1COc1ccc(C2(C)CC2c2ncc(C(=O)O)s2)c(Cl)c1 (stereo not shown) [VI-12, 2-(2-(2-Chloro-4-((3-(2,6-dichlorophenyl)-5-isopropylisoxazol-4-yl)methoxy)phenyl)-2-methylcyclopropyl) thiazole-5-carboxylic Acid] |
| 10 to 100 | – | CC1(c2ccc(OCc3c(-c4c(Cl)cccc4Cl)noc3C3CC3)cc2Cl)CC1c1ncc(C(=O)O)s1 (stereo not shown) [VI-13] |
| 401 to 5000 | – | N#CC1(c2ccc(OCc3c(-c4c(Cl)cccc4Cl)noc3C3CC3)cc2Cl)CC1c1cncc(C(=O)O)c1 (stereo not shown) [VII-05, 5-(2-(4-((3-(2,6-Dichlorophenyl)-5-cyclopropylisoxazol-4-yl)methoxy)-2-chlorophenyl)-2-cyanocyclopropyl) pyridine-3-carboxylic Acid] |
| 101 to 400 | – | COc1cc(C(=O)O)cc2sc(C3CC3(C#N)c3ccc(OCc4c(-c5c(Cl)cccc5Cl)noc4C4CC4)cc3Cl)nc12 (stereo not shown) [VII-06, 2-[2-(2-Chloro-4-[[5-cyclopropyl-3-(2,6-dichlorophenyl)-1,2-oxazol-4-yl]methoxy]phenyl)-2-cyanocyclopropyl]-4-methoxy-1,3-benzothiazole-6-carboxylic Acid] |
| 401 to 5000 | – | CC(C)n1nc(C(=O)O)cc1C1CC1(C#N)c1ccc(OCc2c(-c3c(Cl)cccc3Cl)noc2C2CC2)cc1Cl (stereo not shown) [VII-07] |
| 10 to 100 | – | Cc1ccc(C(=O)O)cc1C1CC1(C#N)c1ccc(OCc2c(-c3c(Cl)cccc3Cl)noc2C2CC2)cc1Cl (stereo not shown) [VII-08] |
| 101 to 400 | – | COc1ccc(C(=O)O)cc1C1CC1(C#N)c1ccc(OCc2c(-c3c(Cl)cccc3Cl)noc2C2CC2)cc1Cl (stereo not shown) [VII-09] |
| 10 to 100 | – | Cc1cc(C(=O)O)cc(C2CC2(C#N)c2ccc(OCc3c(-c4c(Cl)cccc4Cl)noc3C3CC3)cc2Cl)c1 (stereo not shown) [VII-10] |

Further lines, the molecule ahead of its results:

| Structure (SMILES) | EC50 (FXR) [nM] | EC50 (FXR-LBD) [nM] |
| --- | --- | --- |
| CC1(c2cncc(C(=O)O)c2)CC1c1ccc(OCc2c(-c3c(Cl)cccc3Cl)noc2C2CC2)cc1Cl (single isomer, unassigned) [IV-06-1, 5-[2-(2-Chloro-4-[[5-cyclopropyl-3-(2,6-dichlorophenyl)-1,2-oxazol-4-yl]methoxy]phenyl)-1-methylcyclopropyl] pyridine-3-carboxylic Acid] | 101 to 400 | – |
| CC1(c2cncc(C(=O)O)c2)CC1c1ccc(OCc2c(-c3c(Cl)cccc3Cl)noc2C2CC2)cc1Cl (single isomer, unassigned) [IV-06-2, 5-[2-(2-Chloro-4-[[5-cyclopropyl-3-(2,6-dichlorophenyl)-1,2-oxazol-4-yl]methoxy]phenyl)-1-methylcyclopropyl] pyridine-3-carboxylic Acid] | 10 to 100 | – |
| N#CC1(c2ccc(OCc3c(-c4c(Cl)cccc4Cl)noc3C3CC3)cc2Cl)CC1c1cccc(C(=O)O)c1 (single isomer, unassigned) [VII-03-2, 3-[2-(2-Chloro-4-[[5-cyclopropyl-3-(2,6-dichlorophenyl)-1,2-oxazol-4-yl]methoxy]phenyl)-2-cyanocyclopropyl] benzoic Acid] | 10 to 100 | – |
| CC(C)c1onc(-c2c(Cl)cccc2Cl)c1COc1ccc(C2CC2(CN)c2ccc(C(=O)O)cc2)c(Cl)c1 (stereo not shown) [Compound V2-01, 4-[1-(Aminomethyl)-2-(2-chloro-4-[[3-(2,6-dichlorophenyl)-5-(propan-2-yl)-1,2-oxazol-4-yl]methoxy]phenyl)cyclopropyl] benzoic Acid Hydrochloride] | – | 401 to 5000 |
| N#CC1(c2cccc(C(=O)O)c2)CC1c1ccc(OCc2c(-c3c(Cl)cccc3Cl)noc2C2CC2)cc1Cl (stereo not shown) [Compound V-03] | 401 to 5000 | – |
| N#CC1(c2cncc(C(=O)O)c2)CC1c1ccc(OCc2c(-c3c(Cl)cccc3Cl)noc2C2CC2)cc1Cl (stereo not shown) [Compound V-04, 5-[2-(2-Chloro-4-[[5-cyclopropyl-3-(2,6-dichlorophenyl)-1,2-oxazol-4-yl]methoxy]phenyl)-1-cyanocyclopropyl] pyridine-3-carboxylic Acid] | 401 to 5000 | – |
| CC1(c2cccc(C(=O)O)c2)CC1c1ccc(OCc2c(-c3c(Cl)cncc3Cl)noc2C2CC2)cc1Cl (stereo not shown) [IV-04] | 101 to 400 | – |
| CC1(c2ccnc(C(=O)O)c2)CC1c1ccc(OCc2c(-c3c(Cl)cccc3Cl)noc2C2CC2)cc1Cl (stereo not shown) [IV-07] | 401 to 5000 | – |
| CC1(c2cncc(C(=O)O)c2)CC1c1ccc(OCc2c(-c3c(Cl)cncc3Cl)noc2C2CC2)cc1Cl (stereo not shown) [IV-08] | 101 to 400 | – |
| CC1(c2cncc(C(=O)O)c2)CC1c1ccc(OCc2c(-c3ccccc3OC(F)(F)F)noc2C2CC2)cc1Cl (stereo not shown) [IV-09, 5-[2-[2-Chloro-4-([5-cyclopropyl-3-[2-(trifluoromethoxy)phenyl]-1,2-oxazol-4-yl]methoxy)phenyl]-1-methylcyclopropyl] pyridine-3-carboxylic Acid] | 101 to 400 | – |
| CC1(c2cncc(C(=O)O)c2)CC1c1ccc(OCc2c(-c3ccccc3OC(F)F)noc2C2CC2)cc1Cl (stereo not shown) [IV-10] | 101 to 400 | – |
| CC(C)c1cnn(-c2c(Cl)cccc2Cl)c1COc1ccc(C2CC2(C)c2cncc(C(=O)O)c2)c(Cl)c1 (stereo not shown) [IV-11] | 10 to 100 | – |
| CC1(c2cncc(C(=O)NCC(=O)O)c2)CC1c1ccc(OCc2c(-c3c(Cl)cccc3Cl)noc2C2CC2)cc1Cl (stereo not shown) [IV-12, 2-([5-[2-(2-Chloro-4-[[5-cyclopropyl-3-(2,6-dichlorophenyl)-1,2-oxazol-4-yl]methoxy]phenyl)-1-methylcyclopropyl]pyridin-3-yl] formamido) Acetic Acid] | 401 to 5000 | – |
| CC1(c2cncc(C(=O)NCCS(=O)(=O)O)c2)CC1c1ccc(OCc2c(-c3c(Cl)cccc3Cl)noc2C2CC2)cc1Cl (stereo not shown) [IV-13] | – | 10 to 100 |
| CC(C)c1onc(-c2c(Cl)cccc2Cl)c1COc1ccc(C2CC2(C)c2ccc3c(c2)c(C(=O)O)nn3C(C)C)c(Cl)c1 (stereo not shown) [IV-14] | 401 to 5000 | – |
| COc1cc(C(=O)O)cc2sc(C3(C)CC3c3ccc(OCc4c(-c5c(Cl)cccc5Cl)noc4C(C)C)cc3Cl)nc12 (stereo not shown) [IV-16] | 101 to 400 | – |
| CC1(c2nc3ccc(C(=O)O)cc3s2)CC1c1ccc(OCc2c(-c3c(Cl)cccc3Cl)noc2C2CC2)cc1Cl (stereo not shown) [IV-17] | 101 to 400 | – |
| Cc1cc(C(=O)O)cc2sc(C3(C)CC3c3ccc(OCc4c(-c5c(Cl)cccc5Cl)noc4C4CC4)cc3Cl)nc12 (stereo not shown) [IV-18] | – | 401 to 5000 |
| CC1(c2ncc(C(=O)O)s2)CC1c1ccc(OCc2c(-c3c(Cl)cccc3Cl)noc2C2CC2)cc1Cl (stereo not shown) [IV-19, 2-(2-(2-Chloro-4-((5-cyclopropyl-3-(2,6-dichlorophenyl)isoxazol-4-yl)methoxy)phenyl)-1-methylcyclopropyl) thiazole-5-carboxylic Acid] | – | 101 to 400 |
